# Biological target: T1, Phosphatidylinositol 4,5-bisphosphate 3-kinase catalytic subunit delta isoform (Homo sapiens, UniProt O00329)
# T1 sequence (O00329 whole entry): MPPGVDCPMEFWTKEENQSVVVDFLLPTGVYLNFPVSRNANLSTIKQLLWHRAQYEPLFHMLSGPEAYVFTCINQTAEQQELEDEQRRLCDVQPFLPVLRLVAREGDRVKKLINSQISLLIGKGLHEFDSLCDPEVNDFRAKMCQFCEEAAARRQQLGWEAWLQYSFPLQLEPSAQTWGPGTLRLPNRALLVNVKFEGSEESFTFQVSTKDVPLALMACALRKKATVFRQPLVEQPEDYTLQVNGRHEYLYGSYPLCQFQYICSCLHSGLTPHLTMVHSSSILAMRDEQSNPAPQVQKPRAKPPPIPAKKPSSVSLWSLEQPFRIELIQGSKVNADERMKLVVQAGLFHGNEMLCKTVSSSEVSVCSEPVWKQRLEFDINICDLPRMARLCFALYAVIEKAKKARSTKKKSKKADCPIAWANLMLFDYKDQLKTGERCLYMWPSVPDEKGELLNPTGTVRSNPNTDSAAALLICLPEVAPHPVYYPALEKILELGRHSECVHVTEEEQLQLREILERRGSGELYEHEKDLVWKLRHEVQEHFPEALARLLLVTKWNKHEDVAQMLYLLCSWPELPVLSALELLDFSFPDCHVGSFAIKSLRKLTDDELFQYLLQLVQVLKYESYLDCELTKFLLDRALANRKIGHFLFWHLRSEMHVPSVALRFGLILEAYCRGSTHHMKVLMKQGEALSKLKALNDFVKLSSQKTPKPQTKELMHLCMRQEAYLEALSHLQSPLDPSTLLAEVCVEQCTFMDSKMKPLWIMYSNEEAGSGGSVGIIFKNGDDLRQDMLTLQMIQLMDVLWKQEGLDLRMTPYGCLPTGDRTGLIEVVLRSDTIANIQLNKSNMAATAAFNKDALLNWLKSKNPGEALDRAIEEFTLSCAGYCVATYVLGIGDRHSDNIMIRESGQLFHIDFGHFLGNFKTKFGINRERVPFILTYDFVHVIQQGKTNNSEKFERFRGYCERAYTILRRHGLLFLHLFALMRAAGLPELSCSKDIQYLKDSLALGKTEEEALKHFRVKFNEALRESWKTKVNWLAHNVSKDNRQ
# Experiment: Scintillation Proximity Assay
# Procedure: The kinase reaction was conducted in polystyrene 384-well matrix white plate from Thermo Fisher Scientific in a final volume of 25 uL. Inhibitors were first diluted serially in DMSO and added to the plate wells before the addition of other reaction components. The final concentration of DMSO in the assay was 0.5%. The PI3K assays were carried out at room temperature in 20 mM MOPS, pH 6.7, 10 mM MgCl2, 5 mM DTT and CHAPS 0.03%. Reactions were initiated by the addition of ATP, the final reaction mixture consisted of 20 uM PIP2, 20 uM ATP, 0.2 uCi [gamma-33P]ATP, 4 nM PI3Kdelta. […] 25 mM EDTA, 400 uM ATP. The final concentration of SPA beads was 1.0 mg/mL. After the plate sealing, plates were shaken overnight at room temperature and centrifuged at 1800 rpm for 10 minutes, the radioactivity of the product was determined by scintillation counting on Topcount (PerkinElmer).
row,IC50 [nM],SMILES
1,< 10,"CCOc1c(C(C)n2cc(C)c3c(N)ncnc32)cc(Cl)c(C#N)c1C1CN([C@@H](C)CO)C1 (stereo partly drawn) [US10646492, Example 309]"
2,< 10,"COc1c([C@H](C)n2cc(C)c3c(N)ncnc32)cc(Cl)c(C#N)c1C1CN([C@@H](C)CO)C1 [US10646492, Example 362]"

row,SMILES,IC50 [nM]
1,"COc1c(C(C)n2nc(C)c3c(N)ncnc32)cc(Cl)c(C)c1-c1ccnc(C(=O)C(C)C)c1 (stereo not drawn) [US10646492, Example 16]",< 10

# From BindingDB's records for patent US10646492 (Incyte Corporation; Incyte Holdings Corporation, 2020)
